We go through three molecules from patent publication US9526766B2, “Potentiation of antibiotic treatment with a protein-lipid complex” (priority 2012, dated 2016).

Assay [1] has as its system Staphylococcus aureus. The experiment in a line: Bactericidal activity on planktonic cultures. It counts as cell-based. As to conditions: antibiotic alone. The protocol: Methodology: In late logarithmic growth phase, the bacteria were harvested by centrifugation at 12,000×g for 10 minutes and resuspended in phosphate-buffered saline (PBS; […], […], […], pH 7.4). Appropriate dilutions of the bacteria were suspended in PBS and treated with indicated concentrations of ALAFAC and/or antibiotics for various times. The effect on bacterial viability was assessed by plating serial dilutions of bacterial sample on tryptic soy agar plates containing 5% sheep blood (viable counts) and determining viable colony forming units after overnight growth at 37° C.

Assay [2] has as its system S. aureus NRS70 (MRSA) nasopharyngeal colonization. Description: Murine nasopharyngeal colonization model, intranasal treatment. As to conditions: for Colonization burden: mice colonized with NRS70 for 48 hours, methicillin single dose 100 μg (5,000 μg/ml) alone, ALAFAC alone at the same dose. It counts as in vivo, Staphylococcus aureus. The protocol: Methodology: Six-week-old female BALB/cByJ mice from Jackson Laboratories (Bar Harbor, Me., U.S.A.) were maintained in filter-top cages on standard laboratory chow and water ad libitum until use. Mice were colonized as described previously. In short, 20 μl of a bacterial suspension containing 5×10^6 CFUs of EF3030 pneumococci, 1×10^8 CFUs of SP670 pneumococci, or 5×10^7 NRS70 methicillin-resistant S. aureus in PBS were pipetted into the nares of non-anesthetized mice. After 48 hours, mice were treated with 20 μl gentamicin (0-5,000 μg/mL), 20 μl penicillin (0-5,000 μg/mL), or 20 μl of methicillin (0-5,000 μg/ml) in the presence or absence of 50 or 100 μg ALAFAC in the nares for 6 hours as a single dose. Colonization burden was then assessed after euthanizing the animals by enumerating viable bacteria from harvested nasopharyngeal tissue after the nasal wash. Nasopharyngeal tissue was dissected out as described by removing the upper skull bone, and harvesting the tissue present in the nasal conchae with forceps. Bacterial load was measured by determining viable plate counts from the homogenized tissue.
Mice were colonized as described. In short, 10 μl of a bacterial suspension containing 5×10^7 CFUs of NRS 70 staphylococci in PBS were pipetted into the nares of non-anesthetized mice. After 24 hours, mice were treated with 20 μl methicillin (0-100 μg or 0-5,000 μg/mL) in the presence or absence of 20 μl (100 μg) ALAFAC in the nares for 12 hours. Colonization burden was then assessed after euthanizing the animals by enumerating viable bacteria both in a nasopharyngeal lavage obtained by injecting 100 μL PBS in the trachea of mice and collecting it as it flowed out the nares, and from harvested nasopharyngeal tissue after the nasal wash. Nasopharyngeal tissue was dissected out as described by removing the upper skull bone, and harvesting the tissue present in the nasal conchae with forceps. Bacterial load was measured by determining viable plate counts from the nasal lavage or from homogenized tissue as described above.

The next assay has as its system MRSA strain NRS 384. Description: Methicillin resistance development under stepwise methicillin exposure. In kind it is cell-based. The settings on record: Staphylococcus aureus, read-out: Methicillin MIC after adaptation, NRS 384. From the text: ALAFAC and Methicillin Resistance Development. Experiments were designed to test the impact of ALAFAC on the adaptation of MRSA to methicillin in liquid cultures, and to test ALAFAC's potential to inhibit resistance increase during antibiotic pressure. […]

Assay [3] relates to Staphylococcus aureus. Description: Minimal bactericidal concentration (MBC) from MIC plates. As to conditions: antibiotic alone. It counts as cell-based. From the text: The MBC was defined as the lowest concentration of antimicrobials yielding colony counts <0.1% (3 log10 reduction) of the initial inoculum (as determined by colony counts from the growth control well immediately after inoculation) as described.

A further assay relates to NRS 384 Staphylococci. The experiment in a line: Intracellular pH measurement (BCECF-AM). In kind it is cell-based, Staphylococcus aureus. The settings on record: ALAFAC 100 μg/mL (6 μM), RuR 30 μM, Amiloride 1 mM. From the text:
Intracellular pH measurement. A reported protocol for intracellular pH (pHi) measurement was modified and optimized for S. aureus by testing the effect of various dye concentrations and staining times on the measured fluorescence of S. aureus isolate NRS 384 grown to mid-log phase. Cell samples were subjected to increasing concentrations of the membrane-permeant acetoxymehtyl (AM) ester derivative of the dual-excitation ratiometric pH indicator dye BCECF (2′,7′-bis-(2-carboxyethyl)-5-(and-6)-carboxyfluorescein), for 30 minutes at 30° C. Fluorescence was measured as a ratio of fluorescence at 530 nm with dual wavelength excitation at 490 and 440 nm and calibration curves were established for each independent experiment. After testing a number of loading concentrations we observed that the fluorescence ratios remains generally constant when concentrations above 20 μM was used. Therefore 25 μM BCECF-AM was used for all experiments. The optimized staining time, 30 minutes, was determined using the same criteria and was used for all experiments. After loading, the cells were washed twice in PBS by centrifugation and the resulting pellet was resuspended in PBS to the original volume and ALAFAC and ALAFAC/antibiotic combinations were added. CCCP was added as a positive control. CCCP is a lipophilic weak acid that is soluble in the lipid domain of the membrane in both the protonated and deprotonated form. This allows it to act as a protonophore causing an influx of H^+ into the cytoplasm, dissipating both the electrical potential and the H^+ gradient across the inner membrane. For each experiment calibration was performed where cells were resuspended in high [K^+] buffers at different pH values ranging from 6.5 to 8.0.

The test system of assay [4] is Staphylococci. Description: Membrane integrity assays (propidium iodide, ATP, A260 leakage). In kind it is cell-based, Staphylococcus aureus. The settings on record: S. aureus; data not shown. The protocol: Membrane Integrity Assays. To evaluate the effect of […] on membrane integrity, Staphylococci were exposed to […] and antibacterial agents at indicated concentrations for 50 minutes at 37° C. in PBS. The detergent Triton X-100 (0.1%) was used as a control, known to cause extensive membrane rupture. After treatment the leakage of soluble components (DNA RNA and protein) were measured from supernatant obtained after centrifugation of the bacterial suspension at 13,000×g for 5 min, by measuring the absorbance at 260 nm in a BioTek Synergy 2 plate reader with the Take3 microdrop addition (Biotek). Cellular release of the small molecule ATP (MW 507) that was measured from the same supernatants using the ATP determining kit (Invitrogen), which measures the luminescence of oxyluciferin produced from the oxidation of luciferin by luficerase, a process that requires ATP degradation. […] Where applicable, independent readings were also taken in the presence of antibacterial agents alone to enable corrections for potential background leakage.

Another assay has as its system Pseudomonas aeruginosa. As to conditions: concentrations up to 5 mg/ml; cited from earlier work.
A further assay concerns Escherichia coli. Description: Bactericidal activity of ALAFAC alone. In kind it is cell-based.
Assay [5] deals with Staphylococci. The settings on record: concentrations up to 5 mg/ml; cited from earlier work.
Setting [6] is: S. aureus NRS384, within 4-6 hours.

≈ marks a conversion by molar mass, not a printed value. Read-outs that look alike come from different tables or passages of the source. Bounds are passed on as bounds.

For the molecule `COc1cccc(OC)c1C(=O)N[C@@H]1C(=O)N2[C@@H]1SC(C)(C)[C@@H]2C(=O)O` [Methicillin, methicillin], the “Minimum antibiotic concentration for bactericidal (>3 log10) activity, planktonic” value is listed as above 128 μg/ml in the assay with Staphylococcus aureus [1] (S. aureus 10307570); 64 μg/ml in the assay on Staphylococcus aureus [1] (S. aureus 11090306); above 128 μg/ml with Staphylococcus aureus [1] (S. aureus NRS1); 128 μg/ml in the assay on Staphylococcus aureus [1] (S. aureus NRS70); above 128 μg/ml in the assay with Staphylococcus aureus [1] (S. aureus NRS71); above 128 μg/ml in the assay on Staphylococcus aureus [1] (S. aureus NRS100). Also, the “Minimum antibiotic concentration for bactericidal (>3 log10) activity, planktonic” value in the assay with Staphylococcus aureus [1] (S. aureus NRS123) and in the assay on Staphylococcus aureus [1] (setting [6]) was above 128 μg/ml each time. In addition, the “Minimum antibiotic concentration for bactericidal (>3 log10) activity on murine nasopharyngeal colonization” value in assay [2] (NRS70, mice, within 12 hours, antibiotic alone) is on record as above 100 μg/dose. Also, the “MRSA colonization, nasopharyngeal tissue” value in assay [2] (mice colonized with NRS 70 for 24 h, one dose, 100 μg methicillin alone or with 100 μg ALAFAC, 12 hours) is “failed to significantly reduce”. Further, in [2], the Colonization burden result is given as “no effect”. In addition, the MIC was determined as 512 µg/mL (≈ 1350 µM) with MRSA strain NRS 384 (8 cycles with increasing methicillin, no ALAFAC) and 64 µg/mL in the assay on MRSA strain NRS 384 (10 cycles in methicillin plus ALAFAC 100 μg/mL (6 μM), MIC tested without ALAFAC). Besides, the MBC was above 256 µg/mL with Staphylococcus aureus [3] (Staphylococcus aureus, NRS1, S. aureus NRS1, read-out: MBC); 128 µg/mL (≈ 336 µM) with Staphylococcus aureus [3] (Staphylococcus aureus, NRS70, S. aureus NRS70, read-out: MBC); above 256 µg/mL in the assay with Staphylococcus aureus [3] (Staphylococcus aureus, NRS71, S. aureus NRS71, read-out: MBC); above 256 µg/mL with Staphylococcus aureus [3] (Staphylococcus aureus, NRS100, S. aureus NRS100, read-out: MBC); above 256 µg/mL in the assay with Staphylococcus aureus [3] (Staphylococcus aureus, NRS123, S. aureus NRS123, read-out: MBC); above 256 µg/mL in the assay on Staphylococcus aureus [3] (Staphylococcus aureus, NRS384, S. aureus NRS384, read-out: MBC). Further, the MBC is 64 µg/mL (≈ 168 µM) in the assay with Staphylococcus aureus [3] (Staphylococcus aureus, S. aureus 11090306, read-out: MBC) and above 256 µg/mL with Staphylococcus aureus [3] (Staphylococcus aureus, S. aureus 10307570, read-out: MBC).
As to gentamicin, the “Minimum antibiotic concentration for bactericidal (>3 log10) activity, planktonic” value with Staphylococcus aureus [1] (setting [6]) is recorded as 50 μg/ml. Besides, the MBC was above 256 µg/mL against Staphylococcus aureus [3] (S. aureus NRS1) and 16 µg/mL against Staphylococcus aureus [3] (S. aureus NRS384).

B1: ALAFAC: non-covalent complex of alpha-lactalbumin and fatty acid (oleic acid); labeled HAMLET or HL in drawings and tables (protein, UniProt P00709 20-142, looked up)
Alpha-lactalbumin: KQFTKCELSQLLKDIDGYGGIALPELICTMFHTSGYDTQAIVENNESTEYGLFQISNKLWCKSSQVPQSRNICDISCDKFLDDDITDDIMCAKKILDIKGIDYWLAHKALCTEKLEQWLCEKL
modifications: complexed with oleic acid
With B1, the “Transmembrane proton gradient (intracellular pH)” value in the assay with NRS 384 Staphylococci is listed as “effectively dissipated the proton gradient”. The “Membrane damage (propidium iodide staining; leakage of ATP, DNA, RNA)” value in the assay with Staphylococci [4] is given as “no membrane damage”. In addition, the Bactericidal activity result in the assay on Pseudomonas aeruginosa and in the assay on Staphylococci [5] was “no detectable activity” throughout. In the assay with Escherichia coli, the “Concentration of ALAFAC not triggering death” value is “exceeding 1,000 μg/ml”. Moreover, in assay [2], the Colonization burden result is “no effect”.
